# pEC50: −log10 of the molar value.
# How the values were obtained:
# Human gammaherpesvirus 4 [1] = assay: Antiviral activity against EBV infected in TPA and sodium butyrate-induced P3HR1 cells assessed as inhibition on EBV lytic replication at 20 uM incubated for 48 hrs by SYBR green dye based real-time PCR method; type: functional; conditions: human gammaherpesvirus 4, P3HR-1, 48 h
# [2] = Cytotoxicity against human P3HR1 cells assessed as reduction in cell viability incubated for 48 hrs by trypan blue dye exclusion assay; type: cell-based, P3HR-1
# Human gammaherpesvirus 4 [3] = assay: Antiviral activity against EBV infected in TPA and sodium butyrate-induced P3HR1 cells assessed as inhibition on EBV lytic replication incubated for 48 hrs by SYBR green dye based real-time PCR method; type: functional, organism-based; conditions: human gammaherpesvirus 4, P3HR-1, 48 h
# [4] = Selectivity index, ratio of CC50 for human P3HR1 cells to EC50 for EBV infected in TPA and sodium butyrate-induced P3HR1 cells; design: species or system P3HR-1
structure (smiles),measurement,setting,value
CC(=O)O[C@H]1[C@H](OC(=O)c2cccnc2)[C@@]2(C)C(C)=CCC[C@@H]2[C@@](C)(/C=C/C2=CC(=O)OC2)[C@@]1(C)O,inhibition at 20 µM,Human gammaherpesvirus 4 [1],< 50%
CC1=CCC[C@H]2[C@@]1(C)[C@@H](OC(=O)c1ccccc1)[C@H](OC(=O)C(C)C)[C@](C)(O)[C@]2(C)/C=C/C1=CC(=O)OC1,CC50 at 48 h,[2],49.7 µM
same,pEC50,Human gammaherpesvirus 4 [3],5.04
same,inhibition at 20 µM,Human gammaherpesvirus 4 [1],> 50%
same,Ratio CC50/EC50,[4],5.4
CC(=O)OC(C(=O)O[C@H]1[C@H](OC(=O)c2ccccc2)[C@@]2(C)C(C)=CCC[C@@H]2[C@@](C)(/C=C/C2=CC(=O)OC2)[C@@]1(C)O)C(C)C (some centres not stated),CC50 at 48 h,[2],148 µM
same,pEC50,Human gammaherpesvirus 4 [3],5.49
same,inhibition at 20 µM,Human gammaherpesvirus 4 [1],> 50%
same,Ratio CC50/EC50,[4],46.1
CC(=O)O[C@@H](CC1=CC(=O)OC1)[C@]1(C)[C@H]2CCC=C(C)[C@]2(C)[C@@H](OC(=O)c2ccccc2)[C@H](O)[C@]1(C)O,CC50 at 48 h,[2],37.8 µM
same,pEC50,Human gammaherpesvirus 4 [3],5.06
same,inhibition at 20 µM,Human gammaherpesvirus 4 [1],> 50%
same,Ratio CC50/EC50,[4],4.3
CC1=CCC[C@H]2[C@@]1(C)[C@@H](OC(=O)c1ccccc1)[C@H](O)[C@]1(C)O[C@]3(COC(=O)C3)C[C@H](OC(=O)c3ccccc3)[C@]21C,CC50 at 48 h,[2],66.5 µM
same,pEC50,Human gammaherpesvirus 4 [3],4.74
same,inhibition at 20 µM,Human gammaherpesvirus 4 [1],> 50%
same,Ratio CC50/EC50,[4],3.6
CC1=CCC[C@H]2[C@@]1(C)[C@@H](OC(=O)c1ccccc1)[C@H](O)[C@]1(C)O[C@]3(COC(=O)[C@@H]3O)C[C@H](OC(=O)c3ccccc3)[C@]21C,CC50 at 48 h,[2],15.1 µM
same,pEC50,Human gammaherpesvirus 4 [3],5.28
same,inhibition at 20 µM,Human gammaherpesvirus 4 [1],> 50%
same,Ratio CC50/EC50,[4],2.9
CC1=CCC[C@H]2[C@@]1(C)[C@@H](OC(=O)c1ccccc1)[C@H](OC(=O)c1cccnc1)[C@](C)(O)[C@]2(C)/C=C/C1=CC(=O)OC1,CC50 at 48 h,[2],1440 µM
same,pEC50,Human gammaherpesvirus 4 [3],4.63
same,inhibition at 20 µM,Human gammaherpesvirus 4 [1],> 50%
same,Ratio CC50/EC50,[4],61.1
CC1=CCC[C@H]2[C@@]1(C)[C@@H](OC(=O)c1ccccc1)[C@H](OC(=O)c1ccccc1)[C@](C)(O)[C@]2(C)/C=C/C1=CC(=O)OC1,CC50 at 48 h,[2],30 µM
same,pEC50,Human gammaherpesvirus 4 [3],4.84
same,inhibition at 20 µM,Human gammaherpesvirus 4 [1],> 50%
same,Ratio CC50/EC50,[4],2.1
CC(=O)OC(C(=O)O[C@H]1[C@H](OC(=O)c2cccnc2)[C@@]2(C)C(C)=CCC[C@@H]2[C@@](C)(/C=C/C2=CC(=O)OC2)[C@@]1(C)O)C(C)C (some centres not stated),CC50 at 48 h,[2],307 µM
same,pEC50,Human gammaherpesvirus 4 [3],4.73
same,inhibition at 20 µM,Human gammaherpesvirus 4 [1],> 50%
same,Ratio CC50/EC50,[4],16.4
CC1=CCC[C@H]2[C@@]1(C)[C@@H](OC(=O)c1ccccc1)[C@H](O)[C@](C)(O)[C@]2(C)/C=C/C1=CC(=O)OC1,CC50 at 48 h,[2],68.3 µM
same,pEC50,Human gammaherpesvirus 4 [3],5.04
same,inhibition at 20 µM,Human gammaherpesvirus 4 [1],> 50%
same,Ratio CC50/EC50,[4],7.5
CC(=O)O[C@H]1[C@H](OC(C)=O)[C@]2(C)O[C@]3(CC[C@]2(C)[C@H]2[C@H](OC(=O)c4ccccc4)CC=C(C)[C@]12C)COC(=O)C3,CC50 at 48 h,[2],738 µM
same,pEC50,Human gammaherpesvirus 4 [3],4.89
same,inhibition at 20 µM,Human gammaherpesvirus 4 [1],> 50%
same,Ratio CC50/EC50,[4],57.2
CC(=O)O[C@H]1[C@H](OC(=O)c2cccnc2)[C@@]2(C)C(C)=CC[C@@H](OC(=O)c3cccnc3)[C@@H]2[C@@]2(C)CC[C@]3(COC(=O)C3)O[C@@]12C,CC50 at 48 h,[2],1790 µM
same,pEC50,Human gammaherpesvirus 4 [3],4.79
same,inhibition at 20 µM,Human gammaherpesvirus 4 [1],> 50%
same,Ratio CC50/EC50,[4],109.2
C=CC(C)(C)c1cc2cc3c(cc2oc1=O)O[C@H](C(C)(C)OC(C)=O)C3,CC50 at 48 h,[2],> 150 µM
same,pEC50,Human gammaherpesvirus 4 [3],5.27
same,Ratio CC50/EC50,[4],>39.6
CC(=O)O[C@H]1[C@H](OC(=O)C(C)C)[C@](C)(O)[C@](C)(/C=C/C2=CC(=O)OC2)[C@H]2CCC=C(C)[C@]12C,inhibition at 20 µM,Human gammaherpesvirus 4 [1],< 50%
CC1=CCC[C@H]2[C@@]1(C)[C@@H](OC(=O)c1cccnc1)[C@H](OC(=O)C(C)C)[C@](C)(O)[C@]2(C)/C=C/C1=CC(=O)OC1,inhibition at 20 µM,Human gammaherpesvirus 4 [1],< 50%
CC(=O)O[C@H]1[C@H](OC(=O)c2ccccc2)[C@](C)(O)[C@](C)(/C=C/C2=CC(=O)OC2)[C@H]2CCC=C(C)[C@]12C,inhibition at 20 µM,Human gammaherpesvirus 4 [1],< 50%
CC(=O)O[C@@H](CC1=CC(=O)OC1)[C@]1(C)[C@H]2CCC=C(C)[C@]2(C)[C@@H](OC(C)=O)[C@H](OC(=O)C(C)C)[C@]1(C)O,inhibition at 20 µM,Human gammaherpesvirus 4 [1],< 50%
CC(=O)O[C@@H](CC1=CC(=O)OC1)[C@]1(C)[C@H]2CCC=C(C)[C@]2(C)[C@@H](OC(=O)c2cccnc2)[C@H](OC(=O)C(C)C)[C@]1(C)O,inhibition at 20 µM,Human gammaherpesvirus 4 [1],< 50%
CC(=O)O[C@@H](CC1=CC(=O)OC1)[C@]1(C)[C@H]2CCC=C(C)[C@]2(C)[C@@H](OC(C)=O)[C@H](OC(C)=O)[C@]1(C)O,inhibition at 20 µM,Human gammaherpesvirus 4 [1],< 50%
CC(=O)O[C@@H](CC1=CC(=O)OC1)[C@]1(C)[C@H]2CCC=C(C)[C@]2(C)[C@@H](OC(=O)c2cccnc2)[C@H](OC(=O)c2cccnc2)[C@]1(C)O,inhibition at 20 µM,Human gammaherpesvirus 4 [1],< 50%
C=C1[C@@H](O)CC[C@H]2[C@@]1(C)[C@@H](OC(=O)c1ccccc1)[C@H](OC(=O)c1ccccc1)[C@](C)(O)[C@]2(C)/C=C/C1=CC(=O)OC1,inhibition at 20 µM,Human gammaherpesvirus 4 [1],< 50%
CC(=O)O[C@H]1[C@H](OC(C)=O)[C@](C)(O)[C@](C)(/C=C/C2=CC(=O)OC2)[C@H]2CCC=C(C)[C@]12C,inhibition at 20 µM,Human gammaherpesvirus 4 [1],< 50%
CC1=CCC[C@H]2[C@@]1(C)[C@@H](OC(=O)c1cccnc1)[C@H](OC(=O)c1cccnc1)[C@](C)(O)[C@]2(C)/C=C/C1=CC(=O)OC1,inhibition at 20 µM,Human gammaherpesvirus 4 [1],< 50%
CC(=O)O[C@H]1[C@H](OC(C)=O)[C@]2(C)O[C@]3(CC[C@]2(C)[C@H]2[C@H](OC(=O)c4cccnc4)CC=C(C)[C@]12C)COC(=O)C3,inhibition at 20 µM,Human gammaherpesvirus 4 [1],< 50%
CC(=O)O[C@H]1[C@H](OC(=O)c2cccnc2)[C@@]2(C)C(C)=CCC[C@@H]2[C@@]2(C)[C@@H](OC(=O)c3cccnc3)C[C@@]3(COC(=O)C3)O[C@@]12C,inhibition at 20 µM,Human gammaherpesvirus 4 [1],< 50%
CC1=CCC[C@H]2[C@@]1(C)[C@@H](OC(=O)c1cccnc1)[C@H](OC(=O)c1cccnc1)[C@]1(C)O[C@]3(COC(=O)C3)C[C@H](OC(=O)c3cccnc3)[C@]21C,inhibition at 20 µM,Human gammaherpesvirus 4 [1],< 50%
CC(=O)O[C@@H](CC1=CC(=O)OC1)[C@]1(C)[C@H]2CCC=C(C)[C@]2(C)[C@@H](OC(=O)c2cccnc2)[C@H](OC(=O)c2ccccc2)[C@]1(C)O [BARBATELLARINES B],inhibition at 20 µM,Human gammaherpesvirus 4 [1],< 50%

# Source: ChEMBL document CHEMBL3576767, “Neo-clerodane diterpenoids from Scutellaria barbata with activity against Epstein-Barr virus lytic replication” (J Nat Prod, 2015)
